“Also recorded” adds a separate entry of the source.
Columns and labels:
[1] = tested on: SNc dopaminergic neurons; experiment: Pacemaking frequency in ex vivo slices; type: cell-based, mouse; settings: 10 μM methamphetamine
[2] = tested on: substantia nigra pars compacta dopaminergic neurons; experiment: Chronic in vivo methamphetamine administration for 28 days, stereology and striatal optical density (Example 2); settings: 28 consecutive days
Description: Immunohistochemistry and stereological analysis: Mice were terminally anesthetized with a mixture of ketamine (50 mg/kg)/xylazine (4.5 mg/kg) and transcardially perfused with 4% paraformaldehyde, post-fixed overnight and cryoprotected in 30% sucrose/phosphate buffered saline (PBS) at 4° C. until use. Serial coronal sections (60 μm thick) were collected throughout the midbrain and striatum. To stain for tyrosine hydroxylase the anti-tyrosine hydroxylase polyclonal antibody (Millipore) 1:2000 followed by goat anti-rabbit IgG biotin conjugated antibody (Millipore) 1:500 with normal goat serum blocking solution was used; after antibody incubation and rinsing with PBS, sections were incubated with ABC Elite Kit (Vector) and processed for diaminobenzidine reaction. Slices were mounted on slides, allowed to dry overnight, dehydrated in ascending alcohol concentrations and mounted with DPX mountant (Sigma). The estimated number of tyrosine hydroxylase positive (TH^+) cells were stereologically counted as previously described.^27 Slices from DAT-Cre X Ai14 mice expressing TdTomato in dopaminergic neurons were mounted on slides, allowed to dry, and mounted with Prolong Gold antifade mountant (Invitrogen). The estimated number of tdTomato expressing cells were stereologically counted. Sampling for stereological quantification was done using an Olympus BX41 microscope with motorized stage (Applied Scientific Instrumentation) and computerized stereology software (Stereologer). The SNc was delineated in each animal in every other section and cells counted using a 40×/0.65NA Olympus lens.
Drug application in ex vivo brain slice or iPSC experiments was performed via perfusion in aCSF.

[3] = tested on: tyrosine hydroxylase positive cells in the SNc; experiment: Methamphetamine 14 days plus 14 days withdrawal, stereology of tyrosine hydroxylase positive cells (Example 1); type: in vivo, mouse; settings: 5 mg/kg methamphetamine for 14 days, sacrificed after 14 days withdrawal
Description: Animals and treatment paradigms: Male C57/B16 and TH-mitoroGFP (Guzman et al., 2010 Nature p. 696; incorporated by reference in its entirety) mice 5-8 wks of age were used for all imaging studies. In addition to the TH-mitoroGFP transgenic line, roGFP was virally delivered into the SNc of C57/B16 mice (either targeting cytosolic or mitochondrial compartments).
Stereology: Brains were fixed with 4% paraformaldehyde and serial coronal sections ([…]) were stained for tyrosine hydroxylase. Total number of tyrosine hydroxylase positive cells were counted in the SNc with the optical fractionator method (West et al., 1991 Anat Rec p. 482; Ilijic et al., 2011 Neurobiol Dis p. 364; incorporated by reference in their entireties).

CNC(C)Cc1ccccc1 (centres unmarked) [methamphetamine, N-methylamphetamine]
pacemaking frequency [1]: attenuated | tyrosine hydroxylase expressing neurons (TH+ neurons) in the SNc, stereological quantification ([2]; 5 mg/kg methamphetamine ip): significantly decreased tyrosine hydroxylase (TH) immunoreactivity in the SNc; also recorded: loss of tyrosine hydroxylase expressing neurons | SNc axons in the striatum, optical density measurements ([2]; 5 mg/kg methamphetamine): loss of tdTomato fluorescence in both the striatum and SNc neurons; also recorded: loss of SNc axons in the striatum | labeled (tdTomato) SNc neurons, Dat-Cre X Ai14 mice, stereological quantification ([2]; 5 mg/kg methamphetamine): loss of tdTomato fluorescence in both the striatum and SNc neurons | tyrosine hydroxylase positive (TH+) cells [3]: loss of TH+ cells

Reference: US11554103B2, “Compositions and methods to reduce pharmaceutical-induced toxicity” (priority 2016, dated 2023)
